Measurements taken from patent publication US8124121B2, “Flavors, flavor modifiers, tastants, taste enhancers, umami or sweet tastants, and/or enhancers and use thereof” (Senomyx, Inc., priority 2003, dated 2012).

What was measured:
[1] = test system: HEK293-Gα15 cells; assay: FLIPR assay on HEK293-Gα15 cells not expressing the human sweet receptor (receptor dependency control); assay type: cell-based
Excerpt: In order to determine the dependency of hT1R2/hT1R3 for the cell response to different stimuli, selected compounds were subjected to a similar analysis on HEK293-Gα15 cells (not expressing the human sweet receptor).

[2] = test system: un-induced I-17 cells; assay: FLIPR assay on un-induced I-17 cells (receptor dependency control); assay type: cell-based; details: I-17 cells not induced with mifepristone; compounds presented at 10 μM
Protocol: In order to determine the dependency of hT1R1/hT1R3 for the cell response to different stimuli, selected compounds were subjected to a similar analysis on I-17 cells that had not been induced for receptor expression with mifepristone (designated as un-induced I-17 cells). […] Compounds were presented to un-induced umami cells at […]—or three times the maximum stimulation used in the dose-response analysis.

[3] = test system: sweet taste, human panelists; assay: Sweet flavor and sweet flavor enhancement measurement using human panelists; assay type: in vivo
Protocol: Overview: Various concentrations of the experimental compound (normally aqueous solutions containing 1, 3, 10, and 30 uM concentrations of the experimental compound; and optionally 50 uM and/or 100 uM concentrations) are individually tasted by trained human subjects and rated for intensity of several taste attributes. The experimental compound may also be tasted when dissolved in a “key tastant” solution.
Procedure: An appropriate quantity of the experimental compound is dissolved in water typically also containing 0.1% ethanol, which is utilized to aid initial dispersion of the compound in the aqeuous stock solution. When appropriate, the experimental compound may also be dissolved in aqueous solutions of a “key tastant” (for example, 4% sucrose, 6% sucrose, 6% fructose/glucose, or 7% fructose/glucose, at pH 7.1 or 2.8).
Five human Subjects are used for preliminary taste tests. […] Subjects refrain from eating or drinking (except water) for at least 1 hour prior to the test. Subjects eat a cracker and rinse with water four times to clean the mouth before taste tests.
The aqueous solutions are dispensed in 10 ml volumes into 1 oz. sample cups and served to the Subjects at room temperature. Samples of the experimental compound dissolved in an appropriate key tastant (e.g., 4% sucrose, 6% fructose, or 6% fructose/glucose, typically at pH 7.1) at various concentrations of the experimental compound may also be served to the Subjects. Subjects also receive a reference sample of the key tastant (e.g., sucrose, fructose, or fructose/glucose, typically at pH 7.1) at different concentrations for comparison.
Subjects taste the solutions, starting with the lowest concentration, and rate intensity of the following attributes on the Labeled Magnitude Scale (LMS) for sweetness, saltiness, sourness, bitterness, savory (umami), and other (off-taste). Subjects rinse three times with water between tastings. If a particular concentration elicits an undesirable characteristic or off-taste, subsequent tastings of higher concentrations are eliminated. After a break, Subjects taste a solution of the key tastant (e.g., 4% sucrose, 6% fructose, or 6% fructose/glucose, typically at pH 7.1) without the experimental compound. Then solutions of the key tastant plus experimental compound are tasted in increasing order of concentration. The key tastant solution can be retasted for comparison with key tastant+experimental compound solutions if necessary. Discussion among panelists is permitted.
Subjects rate the difference in intensity of the test sample compared to the reference sample for the key attribute on a scale of −5 (much less sweet than the reference) to +5 (much more sweet than the reference). A score of 0 indicates the test sample is equally as sweet as the reference. […]

[4] = test system: savory taste, human panelists; assay: Umami/savory flavor experiments using human panelists (trained panel, difference from reference); assay type: in vivo; details: 12 mM MSG + cpd vs reference 12 mM MSG + 100 μM IMP
Protocol: General Panelist Selection: Basic screening of sensory taste testers: Potential panelists were tested for their abilities to rank and rate intensities of solutions representing the five basic tastes. Panelists ranked and rated intensity of five different concentrations of each of the five following compounds: sucrose (sweet), sodium chloride (salty), citric acid (sour), caffeine (bitter), and monosodium glutamate (savory). In order to be selected for participation in testing, panelists needed to correctly rank and rate samples for intensity, with a reasonable number of errors
Preliminary Taste Tests: The panelists selected in the above procedure were deemed qualified for performing Preliminary Taste Testing procedures. The preliminary taste tests are used to evaluate new compounds for intensity of basic tastes and off-tastes. A small group of panelists (n=5) taste approximately 5 concentrations of the compound (range typically between 1-100 μM, in half-log cycles, e.g., 1, 3, 10, 30, and 100 μM) in water and in a solution of 12 mM MSG to evaluate enhancement. Panelists rate the five basic tastes (sweet, salty, sour, bitter, and savory) as well as off-tastes (such as chemical, metallic, sulfur) on a labeled magnitude scale. Samples are served in 10 mL portions at room temperature. The purpose of the test is to determine the highest concentration at which there is no objectionable off-taste, and determine if obvious savory taste or enhancement of savory taste exists at any of the concentrations tested.
Trained Panelist Selection: A trained expert panel was used to further evaluate compounds that had been tested with the preliminary taste test.
Panelists for the trained panel were selected from the larger group of qualifying taste panelists. Panelists were further trained on savory taste by ranking and rating experiments using MSG and IMP combinations. Panelists completed a series of ranking, rating, and difference from reference tests with savory solutions. In ranking and rating experiments, panelists evaluated easy MSG concentrations (0, 6, 18, 36 mM) and more difficult MSG concentrations (3, 6, 12, 18 mM MSG) in water.
Compound testing with Trained Panel: Compounds tested by the trained panel were evaluated in difference from reference experiments. […] Test samples were solutions with varying amounts of MSG, IMP, and the compound.
Compounds were tested against the reference in samples with and without 12 mM MSG. All samples were presented in 10 ml volumes at room temperature. Two sessions were completed for each compound tested to evaluate panel reproducibility.

O=C(CO)[C@@H](O)[C@H](O)[C@H](O)CO [D-Fructose]
functional response in the FLIPR assay using HEK293-Gα15 cells [1]: do not show any functional response

N[C@@H](CCC(=O)O)C(=O)[O-].[Na+] [monosodium glutamate]
functional response in the FLIPR assay using un-induced umami cells [2]: do not show any functional response

Cc1c(F)c(F)c(C(=O)NC2CCCCC2C)c(F)c1F (stereo not shown) [Example 162, 2,3,5,6-tetrafluoro-4-methyl-N-(2-methylcyclohexyl)benzamide]
Perceived Equivalent Sweet Solution ([3]; 10 uM compound + 6% fructose/glucose, pH 7.1): ≥ 8% fructose/glucose
Perceived Equivalent Sweet Solution ([3]; 10 uM compound + 7% fructose/glucose, pH 2.8): ≥ 9% fructose/glucose

Cc1cccc(C)c1C(=O)NC1CCCCC1C (stereo not shown) [Example 168, 2,6-dimethyl-N-(2-methylcyclohexyl)benzamide]
Perceived Equivalent Sweet Solution ([3]; 30 uM compound + 6% fructose/glucose, pH 7.1): Equal to 8% fructose/ % fructose/glucose

COc1cc(C)ccc1CNC(=O)C(=O)NCCc1ccc(C)cn1 [Example 157, N^1-(2-methoxy-4-methylbenzyl)-N^2-(2-(5-methylpyridin-2-yl)ethyl)oxalamide]
melting point: 116 to 117 °C
Taste Data: concentration of cpd with 12 mM MSG that is as strong as 12 mM MSG + 100 μM IMP [4]: 12 mM MSG + 0.3 μM cpd as strong as
